Assays:
Test in all cases: area under the viability dose-response curve (AUC) (AUC (arbitrary units, max 500 = no viability loss)); higher = less sensitive (higher viability)
Details in all cases: exposure time: 120 h; concentration range: 0.1 nM - 10 µM, 6 doses
13F2 = test system: 13F2 (fetal-II hepatoblastoma organoid with high liver markers)
Experimental: (§1)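 Patient-derived hepatoblastoma tumor organoids (about 50 organoids per well, 384-well plates, medium with 5% BME) were treated with the PMC pediatric cancer drug library. Each drug was tested in duplicate at 6 concentrations (0.1 nM to 10 µM, 10-fold steps).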

135F2 = test system: 135F2 (fetal-II hepatoblastoma organoid with high liver markers)
Experimental: as §1

10F2 = test system: 10F2 (fetal-II hepatoblastoma organoid with high liver markers)
Experimental: as §1

27F1 = test system: 27F1 (fetal-I hepatoblastoma organoid with intermediate liver markers)
Experimental: as §1

17E = test system: 17E (embryonal-type hepatoblastoma organoid)
Experimental: as §1

17F1 = test system: 17F1 (fetal-I hepatoblastoma organoid with intermediate liver markers)
Experimental: as §1

96F1 = test system: 96F1 (fetal-I hepatoblastoma organoid with intermediate liver markers)
Experimental: as §1

8F1 = test system: 8F1 (fetal-I hepatoblastoma organoid with intermediate liver markers)
Experimental: as §1

13E = test system: 13E (embryonal-type hepatoblastoma organoid)
Experimental: as §1

3E = test system: 3E (embryonal-type hepatoblastoma organoid)
Experimental: as §1

22E = test system: 22E (embryonal-type hepatoblastoma organoid)
Experimental: as §1

Structure (SMILES): NC(=O)c1cccc2cn(-c3ccc([C@@H]4CCCNC4)cc3)nc12 [Niraparib]
- area under the viability dose-response curve (13F2): 455
- area under the viability dose-response curve (135F2): 458
- area under the viability dose-response curve (10F2): 459
- area under the viability dose-response curve (27F1): 478
- area under the viability dose-response curve (17E): 495
- area under the viability dose-response curve (17F1): 490
- area under the viability dose-response curve (96F1): 492
- area under the viability dose-response curve (8F1): > 500
- area under the viability dose-response curve (13E): 472
- area under the viability dose-response curve (3E): 461

Structure (SMILES): CC(C)(O)c1cc(Nc2cc(Oc3cn(C4CC4)nc3C3CCOCC3)ccn2)ccn1
- area under the viability dose-response curve (135F2): > 500
- area under the viability dose-response curve (27F1): > 500
- area under the viability dose-response curve (96F1): > 500
- area under the viability dose-response curve (8F1): 499
- area under the viability dose-response curve (3E): > 500

Structure (SMILES): COc1cc2/c(=N/c3ccc(Br)cc3F)nc[nH]c2cc1OCC1CCN(C)CC1 [Vandetanib]
- area under the viability dose-response curve (13F2): 373
- area under the viability dose-response curve (135F2): 428
- area under the viability dose-response curve (10F2): 340
- area under the viability dose-response curve (27F1): 446
- area under the viability dose-response curve (17E): 429
- area under the viability dose-response curve (17F1): 449
- area under the viability dose-response curve (96F1): 410
- area under the viability dose-response curve (8F1): 487
- area under the viability dose-response curve (13E): 459
- area under the viability dose-response curve (3E): 474

Structure (SMILES): CNCc1ccccc1-c1csc([C@@H](C)Nc2nc(C)nc3cc(OC)c(OC)cc23)c1 [BAY-293]
- area under the viability dose-response curve (135F2): 446
- area under the viability dose-response curve (27F1): 488
- area under the viability dose-response curve (96F1): 461
- area under the viability dose-response curve (8F1): > 500
- area under the viability dose-response curve (3E): 458

Structure (SMILES): O=C(O)C(=O)O.[NH-][C@@H]1CCCC[C@H]1[NH-].[Pt+2] [Oxaliplatin]
- area under the viability dose-response curve (13F2): 488
- area under the viability dose-response curve (10F2): 457
- area under the viability dose-response curve (27F1): 481
- area under the viability dose-response curve (17E): > 500
- area under the viability dose-response curve (17F1): > 500
- area under the viability dose-response curve (8F1): 486
- area under the viability dose-response curve (22E): > 500
- area under the viability dose-response curve (3E): 490

Structure (SMILES): CC1(N)CCN(c2cnc(-c3cccc(Cl)c3Cl)c(N)n2)CC1 [SHP099]
- area under the viability dose-response curve (13F2): 479
- area under the viability dose-response curve (10F2): 430
- area under the viability dose-response curve (27F1): 464
- area under the viability dose-response curve (17E): > 500
- area under the viability dose-response curve (17F1): 483
- area under the viability dose-response curve (8F1): > 500
- area under the viability dose-response curve (13E): 500
- area under the viability dose-response curve (3E): 473

Structure (SMILES): CCN(CC)CCNC(=O)c1c(C)[nH]c(/C=C2\C(=O)Nc3ccc(F)cc32)c1C [Sunitinib]
- area under the viability dose-response curve (13F2): 419
- area under the viability dose-response curve (135F2): 437
- area under the viability dose-response curve (10F2): 385
- area under the viability dose-response curve (27F1): 498
- area under the viability dose-response curve (17E): 424
- area under the viability dose-response curve (17F1): > 500
- area under the viability dose-response curve (96F1): 464
- area under the viability dose-response curve (8F1): 461
- area under the viability dose-response curve (13E): 463
- area under the viability dose-response curve (3E): 471

Structure (SMILES): COCC1(CO)C(=O)C2CCN1CC2 (configuration not stated) [APR-246]
- area under the viability dose-response curve (13F2): 487
- area under the viability dose-response curve (135F2): 495
- area under the viability dose-response curve (10F2): > 500
- area under the viability dose-response curve (27F1): 462
- area under the viability dose-response curve (17E): 494
- area under the viability dose-response curve (17F1): 497
- area under the viability dose-response curve (96F1): 499
- area under the viability dose-response curve (8F1): 480
- area under the viability dose-response curve (13E): > 500
- area under the viability dose-response curve (3E): > 500

Structure (SMILES): O=NN(CCCl)C(=O)NC1CCCCC1 [Lomustine]
- area under the viability dose-response curve (135F2): 487
- area under the viability dose-response curve (27F1): > 500
- area under the viability dose-response curve (96F1): 470
- area under the viability dose-response curve (8F1): > 500
- area under the viability dose-response curve (22E): 455
- area under the viability dose-response curve (3E): 446

Structure (SMILES): COc1cc2nc(C)nc(N[C@H](C)c3cc(N)cc(C(F)(F)F)c3)c2cc1O[C@H]1CCOC1 [BI-3406]
- area under the viability dose-response curve (135F2): 472
- area under the viability dose-response curve (27F1): 481
- area under the viability dose-response curve (96F1): 413
- area under the viability dose-response curve (8F1): > 500
- area under the viability dose-response curve (3E): > 500

Structure (SMILES): CNC(=O)c1ccccc1Sc1ccc2c(/C=C/c3ccccn3)n[nH]c2c1 [Axitinib]
- area under the viability dose-response curve (13F2): 457
- area under the viability dose-response curve (135F2): 463
- area under the viability dose-response curve (10F2): 411
- area under the viability dose-response curve (27F1): 478
- area under the viability dose-response curve (17E): 438
- area under the viability dose-response curve (17F1): 499
- area under the viability dose-response curve (96F1): 480
- area under the viability dose-response curve (8F1): 495
- area under the viability dose-response curve (13E): 427
- area under the viability dose-response curve (3E): 421

Structure (SMILES): CNC(=O)c1cc(Oc2ccc(NC(=O)Nc3ccc(Cl)c(C(F)(F)F)c3)c(F)c2)ccn1 [Regorafenib]
- area under the viability dose-response curve (13F2): 430
- area under the viability dose-response curve (135F2): 404
- area under the viability dose-response curve (10F2): 389
- area under the viability dose-response curve (27F1): 447
- area under the viability dose-response curve (17E): 456
- area under the viability dose-response curve (17F1): 428
- area under the viability dose-response curve (96F1): 452
- area under the viability dose-response curve (8F1): 290
- area under the viability dose-response curve (13E): 418
- area under the viability dose-response curve (3E): 387

Structure (SMILES): COCc1c(-c2cc3cc(C)cc(OC)c3s2)c2c(N)ncnn2c1CN1CCNC(=O)C1 [Rogaratinib]
- area under the viability dose-response curve (135F2): 473
- area under the viability dose-response curve (27F1): 475
- area under the viability dose-response curve (96F1): 485
- area under the viability dose-response curve (8F1): 496
- area under the viability dose-response curve (22E): 440
- area under the viability dose-response curve (3E): 361

Structure (SMILES): CN(C)CCNC(=O)c1cccn2c(=O)c3cc4ccccc4cc3nc12 [BMH-21]
- area under the viability dose-response curve (135F2): 416
- area under the viability dose-response curve (27F1): 434
- area under the viability dose-response curve (96F1): 445
- area under the viability dose-response curve (8F1): 408
- area under the viability dose-response curve (22E): 466
- area under the viability dose-response curve (3E): 430

Structure (SMILES): CC1(C)CCC(CN2CCN(c3ccc(C(=O)NS(=O)(=O)c4ccc(NCC5CCOCC5)c([N+](=O)[O-])c4)c(Oc4cnc5[nH]ccc5c4)c3)CC2)=C(c2ccc(Cl)cc2)C1 [Venetoclax]
- area under the viability dose-response curve (13F2): 471
- area under the viability dose-response curve (135F2): 470
- area under the viability dose-response curve (10F2): 435
- area under the viability dose-response curve (27F1): 464
- area under the viability dose-response curve (17E): 465
- area under the viability dose-response curve (17F1): 468
- area under the viability dose-response curve (96F1): 461
- area under the viability dose-response curve (8F1): 465
- area under the viability dose-response curve (13E): 456
- area under the viability dose-response curve (3E): 472

Structure (SMILES): NC(=O)/C(=C/n1cnc(-c2cc(C(F)(F)F)cc(C(F)(F)F)c2)n1)c1cncnc1 [Eltanexor]
- area under the viability dose-response curve (135F2): 371
- area under the viability dose-response curve (27F1): 429
- area under the viability dose-response curve (96F1): 406
- area under the viability dose-response curve (8F1): 469
- area under the viability dose-response curve (3E): 345

Structure (SMILES): Nc1cc(F)ccc1NC(=O)c1ccc(CNC(=O)/C=C/c2cccnc2)cc1 [Tucidinostat]
- area under the viability dose-response curve (135F2): 443
- area under the viability dose-response curve (27F1): 458
- area under the viability dose-response curve (96F1): 474
- area under the viability dose-response curve (8F1): 472
- area under the viability dose-response curve (3E): 432

Structure (SMILES): Cn1nccc1Nc1nccc(-c2cc3c(s2)C(C)(C)N(CCN2CCOCC2)C3=O)n1 [Temuterkib]
- area under the viability dose-response curve (135F2): 409
- area under the viability dose-response curve (27F1): 440
- area under the viability dose-response curve (96F1): 484
- area under the viability dose-response curve (8F1): > 500
- area under the viability dose-response curve (22E): > 500
- area under the viability dose-response curve (3E): 443

Structure (SMILES): O=P(O)(NCCCl)NCCCl [Palifosfamide (Ifosfamide)]
- area under the viability dose-response curve (13F2): 498
- area under the viability dose-response curve (10F2): 474
- area under the viability dose-response curve (17E): 473
- area under the viability dose-response curve (17F1): 477
- area under the viability dose-response curve (13E): 493

Structure (SMILES): COc1c(OCCCN2CCOCC2)ccc2c1N=C(NC(=O)c1cnc(N)nc1)N1CCN=C21 [Copanlisib]
- area under the viability dose-response curve (135F2): 315
- area under the viability dose-response curve (27F1): 485
- area under the viability dose-response curve (96F1): 352
- area under the viability dose-response curve (8F1): 390
- area under the viability dose-response curve (22E): 300
- area under the viability dose-response curve (3E): > 500

Structure (SMILES): O=c1[nH]c(=O)n([C@@H]2O[C@H](CO)[C@@H](O)[C@H]2O)cc1F [5-Fluorouridine]
- area under the viability dose-response curve (135F2): 303
- area under the viability dose-response curve (27F1): 364
- area under the viability dose-response curve (96F1): 333
- area under the viability dose-response curve (8F1): 447
- area under the viability dose-response curve (22E): 420
- area under the viability dose-response curve (3E): 319
